Source: PMC8217813, “Bridging Computational Vaccinology and Vaccine Development Through Systematic Identification, Characterization, and Downselection of Conserved and Variable Circumsporozoite Protein CD4 T Cell Epitopes From Diverse Plasmodium falciparum Strains” (Frontiers in Immunology, 2021)
Peptide text beside a SMILES is read from it.

Columns and labels:
HLA-DRB1*0801 = HLA-DRB1*0801 (Homo sapiens, UniProt P01903+P01911, A100R/A103L/A169T/D86S/F76Y/H45Y/I96F/K41T/L162R/M171V/P40S/Q125H/Q178H/Q39Y/Q99D/R218S/R42G/S66Y/V115G/W38E); experiment: In vitro class II HLA binding competition assay; conditions: competition with fluorescent-labeled reference peptide, class II HLA monomers, 24-hours, test peptide 100,000 nM to 100 nM, time-resolved fluorescence
How it was run: (§1)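 First, limiting class II HLA monomers were incubated for 24 h with a fluorescent-labeled reference peptide and DMSO-dissolved test peptide at final concentrations of 100,000 nM to 100 nM. Next, HLA-peptide complexes were captured with anti-HLA-DR antibody. Finally, bound reference was quantified by europium time-resolved fluorescence and IC50 calculated.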

HLA-DRB1*0301 = HLA-DRB1*0301 (Homo sapiens, UniProt P01903+P01911, A100K/A102G/A103R/A169T/F55Y/I96L/K41T/L162R/M171V/P40S/Q125H/Q178H/Q39Y/R42S/S66N/T106N/T262R/W38E/Y61H); experiment: In vitro class II HLA binding competition assay; conditions: competition with fluorescent-labeled reference peptide, class II HLA monomers, 24-hours, test peptide 100,000 nM to 100 nM, time-resolved fluorescence
How it was run: as §1

HLA-DRB1*0101 = biological target: T1, HLA-DRB1*0101 (Homo sapiens, UniProt P01903+P01911, A100R/D57E/F55L/F60I/F76Y/I96L/L162R/M171V/P40L/Q125E/R42F/V115G/Y59C); experiment: In vitro class II HLA binding competition assay; conditions: competition with fluorescent-labeled reference peptide, class II HLA monomers, 24-hours, test peptide 100,000 nM to 100 nM, time-resolved fluorescence
T1 construct: purchased
How it was run: as §1

HLA-DRB1*0701 = HLA-DRB1*0701 (Homo sapiens, UniProt P01903+P01911, A100R/A102G/A103Q/D57E/D86V/E43K/F76Y/K127E/L162R/M171V/P40G/Q125H/Q99D/R33Q/R42Y/R54Q/S133A/S66F/T210M/V115G/Y107V/Y59L/Y89S); experiment: In vitro class II HLA binding competition assay
How it was run: as §1

HLA-DRB1*1501 = biological target: T2, HLA-DRB1*1501 (Homo sapiens, UniProt P01903+P01911); experiment: In vitro class II HLA binding competition assay
T2 construct: purchased
How it was run: as §1

HLA-DRB1*0401 = biological target: T3, HLA-DRB1*0401 (Homo sapiens, UniProt P01903+P01911, A100K/A169T/F76Y/I96L/K127E/L162R/M171V/N62H/P40V/Q125Y/R42H/S133A/S149N/S66Y/V115G/V209L/W38E); experiment: In vitro class II HLA binding competition assay
T3 construct: purchased
How it was run: as §1

HLA-DRB1*1301 = HLA-DRB1*1301 (Homo sapiens, UniProt P01903+P01911, A100E/A169T/K41T/L162R/M171V/P40S/Q125H/Q178H/Q39Y/Q99D/R42S/S66N/T262R/W38E/Y61H); experiment: In vitro class II HLA binding competition assay; conditions: competition with fluorescent-labeled reference peptide, class II HLA monomers, 24-hours, test peptide 100,000 nM to 100 nM, time-resolved fluorescence
How it was run: as §1

HLA-DRB1*1101 = biological target: T4, HLA-DRB1*1101 (Homo sapiens, UniProt P01903+P01911, A100R/A169T/A87E/I96F/K41T/L162R/M171V/P40S/Q125H/Q178H/Q39Y/Q99D/R42S/S66Y/T262R/V115G/W38E); experiment: In vitro class II HLA binding competition assay; conditions: competition with fluorescent-labeled reference peptide, class II HLA monomers, 24-hours, test peptide 100,000 nM to 100 nM, time-resolved fluorescence
T4 construct: purchased
How it was run: as §1

[1] = tested on: CD4 T cells co-cultured with autologous DCs from PBMCs; format: cell-based, human; conditions: positive = Stimulation Index ≥1.5-fold above baseline, 5 µg/mL peptide

`CC[C@H](C)[C@H](NC(=O)[C@H](Cc1c[nH]cn1)NC(=O)[C@H](CCC(N)=O)NC(=O)[C@H](CC(=O)O)NC(C)=O)C(=O)N[C@@H](CCC(=O)O)C(=O)N[C@@H](CCCCN)C(=O)N[C@@H](Cc1ccc(O)cc1)C(=O)N[C@@H](CC(C)C)C(=O)N[C@@H](CCCCN)C(=O)N[C@H](C(=O)N[C@H](C(=O)N[C@@H](CCC(N)=O)C(=O)N[C@@H](CC(N)=O)C(=O)N[C@@H](CO)C(=O)N[C@@H](CC(C)C)C(=O)N[C@@H](CO)C(=O)N[C@H](C(=O)N[C@@H](CCC(=O)O)C(=O)N[C@@H](Cc1c[nH]c2ccccc12)C(=O)N[C@@H](CO)C(=O)N1CCC[C@H]1C(N)=O)[C@@H](C)O)[C@@H](C)CC)[C@@H](C)CC` [ICS5] (Ac-DQHIEKYLKIIQNSLSTEWSP-NH2) gave an IC50 (HLA-DRB1*0801) of 23.1 µM, an IC50 (HLA-DRB1*0301) of 84.7 µM and an IC50 (HLA-DRB1*0101) of 0.218 µM. It also gave an IC50 (HLA-DRB1*0701) of 3.68 µM, an IC50 (HLA-DRB1*1501) of 0.03 µM and an IC50 (HLA-DRB1*0401) of 0.035 µM. The IC50 (HLA-DRB1*1301) was 19.8 µM, the IC50 (HLA-DRB1*1101) was 5.55 µM and the “Percentage of donors demonstrating IFN-γ responses, DR1” value ([1]; DR1 donors N=5, ICCS after 14-day co-culture) was 80%. The “Percentage of donors demonstrating IL-2 responses, DR1” value ([1]; DR1 donors N=5, ICCS) was 20%, the “Percentage of donors demonstrating IL-4 responses, DR1” value ([1]; DR1 donors N=5, ICCS) was 0% and the “Percentage of donors demonstrating IL-10 responses, DR1” value ([1]; DR1 donors N=5, ICCS) was 0%. The “Percentage of donors demonstrating TNF-α responses, DR1” value ([1]; DR1 donors N=5, ICCS) was 40%, the “Percentage of donors demonstrating IFN-γ responses, DR3” value ([1]; DR3 donors N=6, ICCS after 14-day co-culture) was 33% and the “Percentage of donors demonstrating IL-2 responses, DR3” value ([1]; DR3 donors N=6, ICCS) was 0%. For the same compound, the “Percentage of donors demonstrating IL-4 responses, DR3” value ([1]; DR3 donors N=6, ICCS) was 33%, the “Percentage of donors demonstrating IL-10 responses, DR3” value ([1]; DR3 donors N=6, ICCS) was 17% and the “Percentage of donors demonstrating TNF-α responses, DR3” value ([1]; DR3 donors N=6, ICCS) was 17%. The “Percentage of donors demonstrating IFN-γ responses, DR4” value ([1]; DR4 donors N=10, ICCS after 14-day co-culture) was 60%, the “Percentage of donors demonstrating IL-2 responses, DR4” value ([1]; DR4 donors N=10, ICCS) was 40% and the “Percentage of donors demonstrating IL-4 responses, DR4” value ([1]; DR4 donors N=10, ICCS) was 0%. For the same compound, the “Percentage of donors demonstrating IL-10 responses, DR4” value ([1]; DR4 donors N=10, ICCS) was 0%, the “Percentage of donors demonstrating TNF-α responses, DR4” value ([1]; DR4 donors N=10, ICCS) was 40% and the “Percentage of donors demonstrating IFN-γ responses, DR7” value ([1]; DR7 donors N=4, ICCS after 14-day co-culture) was 75%. The “Percentage of donors demonstrating IL-2 responses, DR7” value ([1]; DR7 donors N=4, ICCS) was 25%, the “Percentage of donors demonstrating IL-4 responses, DR7” value ([1]; DR7 donors N=4, ICCS) was 25% and the “Percentage of donors demonstrating IL-10 responses, DR7” value ([1]; DR7 donors N=4, ICCS) was 0%. The “Percentage of donors demonstrating TNF-α responses, DR7” value ([1]; DR7 donors N=4, ICCS) was 0%, the “Percentage of donors demonstrating IFN-γ responses, DR8” value ([1]; DR8 donors N=4, ICCS after 14-day co-culture) was 25% and the “Percentage of donors demonstrating IL-2 responses, DR8” value ([1]; DR8 donors N=4, ICCS) was 0%. For the same compound, the “Percentage of donors demonstrating IL-4 responses, DR8” value ([1]; DR8 donors N=4, ICCS) was 0%, the “Percentage of donors demonstrating IL-10 responses, DR8” value ([1]; DR8 donors N=4, ICCS) was 0% and the “Percentage of donors demonstrating TNF-α responses, DR8” value ([1]; DR8 donors N=4, ICCS) was 75%. The “Percentage of donors demonstrating IFN-γ responses, DR9” value ([1]; DR9 donors N=4, ICCS after 14-day co-culture) was 50%, the “Percentage of donors demonstrating IL-2 responses, DR9” value ([1]; DR9 donors N=4, ICCS) was 25% and the “Percentage of donors demonstrating IL-4 responses, DR9” value ([1]; DR9 donors N=4, ICCS) was 0%. The “Percentage of donors demonstrating IL-10 responses, DR9” value ([1]; DR9 donors N=4, ICCS) was 25%, the “Percentage of donors demonstrating TNF-α responses, DR9” value ([1]; DR9 donors N=4, ICCS) was 50% and the “Percentage of donors demonstrating IFN-γ responses, DR11” value ([1]; DR11 donors N=4, ICCS after 14-day co-culture) was 100%. The “Percentage of donors demonstrating IL-2 responses, DR11” value ([1]; DR11 donors N=4, ICCS) was 50%, the “Percentage of donors demonstrating IL-4 responses, DR11” value ([1]; DR11 donors N=4, ICCS) was 0% and the “Percentage of donors demonstrating IL-10 responses, DR11” value ([1]; DR11 donors N=4, ICCS) was 0%. The “Percentage of donors demonstrating TNF-α responses, DR11” value ([1]; DR11 donors N=4, ICCS) was 75%, the “Percentage of donors demonstrating IFN-γ responses, DR13” value ([1]; DR13 donors N=7, ICCS after 14-day co-culture) was 43% and the “Percentage of donors demonstrating IL-2 responses, DR13” value ([1]; DR13 donors N=7, ICCS) was 14%. The “Percentage of donors demonstrating IL-4 responses, DR13” value ([1]; DR13 donors N=7, ICCS) was 14%, the “Percentage of donors demonstrating IL-10 responses, DR13” value ([1]; DR13 donors N=7, ICCS) was 0% and the “Percentage of donors demonstrating TNF-α responses, DR13” value ([1]; DR13 donors N=7, ICCS) was 43%. The “Percentage of donors demonstrating IFN-γ responses, DR15” value ([1]; DR15 donors N=7, ICCS after 14-day co-culture) was 43%, the “Percentage of donors demonstrating IL-2 responses, DR15” value ([1]; DR15 donors N=7, ICCS) was 0% and the “Percentage of donors demonstrating IL-4 responses, DR15” value ([1]; DR15 donors N=7, ICCS) was 0%. The “Percentage of donors demonstrating IL-10 responses, DR15” value ([1]; DR15 donors N=7, ICCS) was 14% and the “Percentage of donors demonstrating TNF-α responses, DR15” value ([1]; DR15 donors N=7, ICCS) was 29%.
